Laboratory results taken from US6417247B1, “Polymer/ceramic composites” (priority 1997, dated 2002).

Assay: Release of model compounds from chitosan-calcium phosphate composites in PBS
Conditions: chitosan-TCP composite, PBS pH 7.4, 37° C., FIG. 12

time over which the model compound was released from the composite: ≤ 10 h
SMILES: O=c1[nH]cc(F)c(=O)[nH]1 [5-FU, 5-fluorouracil]
